Reference: US6372963B1, “Transformation method for plants” (Aventis CropScience N.V., priority 1998, dated 2002)

Tests used:
Assay type in all cases: cell-based
[1] = test system: type I calli from the PHH corn line; assay: Agrobacterium-mediated transformation of plant-phenolic pre-treated type I callus from corn; details: for Approximate mean transformation frequency with pretreatment: 5 days on 100-200 μM acetosyringone; for PAT-positive plant lines: about 4000 pre-treated callus fragments
Text: Type I callus fragments were obtained essentially as described in WO 92/09696. Immature embryos from corn line (Pa91xH99)xH99 (PHH-line) were excised from the kernel 9-12 days after pollination, surface sterilized and plated on Mahi1VII medium for the induction of type I callus. Type I callus was subcultured on the same medium with one month intervals for about two to six months. Next, type I callus was finely cut in fragments with an average length of about 1.5 mm, and the resulting fragments were incubated-for 5 days on LSIDhy1.5VII substrate supplemented with 100-200 μM acetosyringone. The pre-induced callus pieces were collected and without further wounding, immersed in a suspension of the appropriate Agrobacterium strain for about 3 to about 20 minutes. The bacterial suspension was obtained in the following way: bacteria were grown for 3 to 6 days on MAG medium [minimal A medium (Jeffrey Miller, 1972) supplemented with 2 g/L glucose] or AB medium (Chilton et al., 1974). The bacteria were harvested, and resuspended in liquid LSI substrate supplemented with 100-200 μM acetosyringone, at a concentration of about 5×10^9 cells/ml.
After immersion in the bacterial suspension, the callus fragments were co-cultivated on LSIIDhy1.5XI medium, supplemented with 100-200 μM acetosyringone, at about 25° C. for 3 to 6 days (3 days for LBA-type strain, 6 days for EHA-type strain).
After co-cultivation, the tissue was transferred to Ahx1.5VIIp500ino1000ppT10 and cultured for3 to 4 weeks. Proliferating, phosphinotricin (PPT)-resistant calli were excised and subcultured at least twice, with 3 week subculture intervals on Mh1VIIp500ppT5. Embryogenic PPT-resistant calli were plated on regeneration medium (A37VIIp500 ppT2.), and the embryogenic tissue was subcultured twice, with 10 to 14 day intervals, on the same medium. Small plants were transferred to glass containers containing A6%VIIp500ppT2 substrate for further growth, and developing shoots were then transferred to half-strength MS medium supplemented with 1.5% sucrose to allow further shoot elongation as well as rooting. Plants were tested for phosphinothricin acetyl transferase (PAT) activity, and PAT-positive plants were transferred to the greenhouse. PAT-positive plants were tested for the presence of the transgene by Southern hybridization.
Type I callus fragments were obtained as described in Example I and incubated for 5 days on LSIDhy1.5VII substrate supplemented with 100 μM of acetosyringone, followed by co-cultivation with Agrobacterium strain A3532 and A3638. For strain A3532 only I PAT-positive plant was obtained, even with acetosyringone pretreatment (transformation frequency<0.1%). However, the presence of the functional virB promoter preceding the virB11 open reading frame on the T-DNA vector, improved the transformation efficiency (see Table I) at least almost ten times.
Type I callus fragments were obtained as described in Example 1 and incubated for 5 days on LSIDhy1.5VII substrate supplemented with 100 μM of the plant phenolic compounds of Table II. Approximately 200 pre-induced callus fragments were co-cultivated with Agrobacterium strain A3637 (or A3638).
Type I callus fragments were obtained as described in Example 1 and incubated for 5 days on LSIDhy1.5VII substrate supplemented with either 200 μM of acetosyringone or a combination of 100 μM acetosyringone and 100 μM p-hydroxybenzoic acid. About 250 callus pieces were co-cultivated with Agrobacterium strain A3533. Whereas 2 shoot-regenerating lines (comprising 1 PAT-positive line) were obtained on PPT containing media after pre-induction on acetosyringone (frequency about 1%), 7 shoot regenerating lines (comprising 5 PAT-positive lines) were obtained on PPT containing media after pre-induction on acetosyringone plus p-hydroxybenzoic acid (frequency about 3%).

[2] = test system: type I calli obtained from corn plant line (Pa91xH99)xPa91 (PHP); assay: Agrobacterium co-cultivation of acetosyringone pre-treated type I calli, PHP line
type I callus from corn = assay: Transformation by electroporation of acetosyringone pre-treated type I callus from corn; details: 5 days on 100 μM acetosyringone
Protocol: Finely chopped pieces of calli, derived from type I callus and pre-incubated for 5 days on 100 μM acetosyringone-containing medium, as described in Example 1, were subjected without further wounding to electroporation as described in […]/09696. Briefly, about 50 callus pieces were resuspended in 100 μl EPM-KCl buffer and preplasmolyzed for 3 hr at room temperature. Next the callus pieces were washed in EPM+KCl buffer and transferred to an electrocuvette in EPM+KCl buffer. Plasmid DNA (10 μg of pDE110) was added, and the DNA was incubated with the callus fragments for about 1 hr at room temperature. Electroporation was carried out using standard conditions (1 pulse with initial field strength 375 V/cm from a 900 μF capacitor). The calli were never kept on ice. Phosphinotricin-resistant calli were selected and plants regenerated as described ([…]/09696). Phosphinotricin acetyl transferase activity was detected as described ([…]/09696).

[3] = test system: type I calli obtained from corn plant line Pa91; assay: Agrobacterium co-cultivation of acetosyringone pre-treated type I calli, Pa91 line
[4] = 5 days on 100 μM compound, approximately 200 callus fragments, strain A3637 (or A3638)
[5] = electroporation of about 530 callus pieces
[6] = strain A3533, about 250 callus pieces, 200 μM acetosyringone or 100 μM acetosyringone + 100 μM p-hydroxybenzoic acid, 5 days

## O=C(O)c1ccc(O)cc1O [2,4-dihydroxybenzoic acid, 2,4 dihydroxybenzoic acid]
[1]; [4]
  Number of PAT-positive lines: 1
  Transformation frequency: 0.5%

## O=C(O)c1ccc(O)c(O)c1 [3,4-dihydroxybenzoic acid]
[1]; [4]
  Number of PAT-positive lines: 2
  Transformation frequency: 1%

## COc1cc(C(C)=O)cc(OC)c1O [acetosyringone, 3,5-dimethoxy-4-hydroxyacetophenone]
[2]
  effect of pre-treatment on transformation frequency: Enhancement of transformation frequency
Type I callus from corn; [5]
  PAT-positive plants: 4
  Transformation frequency: about 0.75%
Type I callus from corn; electroporation
  transformation frequency relative to callus not pre-treated: about three times higher
[3]
  effect of pre-treatment on transformation frequency: Enhancement of transformation frequency
[1]; [4]
  Number of PAT-positive lines: 2
  Transformation frequency: 1%
[1]; Agrobacterium strain A3533
  Approximate mean transformation frequency with pretreatment: 0.8%
[1]; Agrobacterium strain A3637
  Approximate mean transformation frequency with pretreatment: 0.8%
[1]; Agrobacterium strain A3638
  Approximate mean transformation frequency with pretreatment: 0.9%
[1]; pretreatment medium
  low concentration still giving a good effect on transformation efficiency: approximately 25 μM
  optimal concentration in the medium: approximately 200 μM
[1]; strain A3460, about 1700 pre-treated callus fragments
  PAT-positive lines: 5
[1]; strain A3532, 5 days on 100 μM acetosyringone
  Transformation frequency: < 0.1%
[1]; [6]
  PAT-positive lines: 1
  frequency: about 1%
  shoot-regenerating lines on PPT containing media: 2
[1]; strain A3533
  PAT-positive plant lines: 30
[1]; strain A3637
  PAT-positive plant lines: 33
[1]; strain A3638
  PAT-positive plant lines: 37
[1]; strains A3638, A3533 and A3637, about 4000 pre-treated callus fragments each
  average transformation frequencies: about 1%
[1]; versus no pretreatment, co-cultivation with Agrobacterium strains
  increase in transformation efficiency by pretreatment: at least three times

## Oc1ccccc1O [catechol, 1,2-dihydroxybenzene]
[1]; [4]
  Number of PAT-positive lines: 1
  Transformation frequency: 0.5%

## O=C(O)c1cc(O)c(O)c(O)c1 [gallic acid, 3,4,5-trihydroxybenzoic acid]
[1]; [4]
  Number of PAT-positive lines: 3
  Transformation frequency: 1.5%

## O=C(O)c1ccc(O)cc1 [p-hydroxybenzoic acid, 4-hydroxybenzoic acid]
[1]; [4]
  Number of PAT-positive lines: 2
  Transformation frequency: 1%

## COc1cc(C=O)ccc1O [vanillin, 3-methoxy-4-hydroxybenzaldehyde]
[1]; [4]
  Number of PAT-positive lines: 4
  Transformation frequency: 2%
